Measured values taken from patent US20240150356A1, “Pyrimidine amide compounds and use thereof” (ALPHALA CO., LTD., priority 2019, published 2024).

Test system: Hep3B cells (hepatocellular carcinoma cell line)
Test: In vitro MTS cell viability assay (NCI-60 methodology), Hep3B
Assay type: cell-based
Settings: Homo sapiens, 48 h, Table 1, MTS, 2 days drug incubation, 50% reduction vs time zero, read-out: Hep3B LC50
How it was run: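 Following NCI-60 method, MTS viability of Hep3B measured 24 h after plating (time zero) and after a further 2-day exposure to five concentrations (2-fold series). LC50 defined where [(Ti−Tz)/Tz]×100 = −50.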

`CN(C)CCn1ncc2c(NC(=O)c3ccc([N+](=O)[O-])s3)nc(-c3ccc(OC(F)(F)F)cc3)nc21` [Compound 1-31, N-(1-(2-(dimethylamino)ethyl)-6-(4-(trifluoromethoxy)phenyl)-1H-pyrazolo[3,4-d]pyrimidin-4-yl)-5-nitrothiophene-2-carboxamide] and `Cn1ncc2c(NC(=O)c3ccc([N+](=O)[O-])s3)nc(Oc3cccc(C(F)(F)F)c3)nc21` [Compound 1-18, N-(1-methyl-6-(3-(trifluoromethyl)phenoxy)-1H-pyrazolo[3,4-d]pyrimidin-4-yl)-5-nitrothiophene-2-carboxamide] are within 1.5-fold of each other in LC50: 1860 nM for the first, 1990 nM for the second.

With `Cn1ncc2c(NC(=O)c3ccc([N+](=O)[O-])s3)nc(C#Cc3ccc(C(F)(F)F)cc3)nc21` [Compound 1-13, N-(1-methyl-6-((4-(trifluoromethyl)phenyl)ethynyl)-1H-pyrazolo[3,4-d]pyrimidin-4-yl)-5-nitrothiophene-2-carboxamide] the LC50 was 2030 nM.

Same assay, conditions: Homo sapiens, 48 h, Table 2, MTS, 2 days drug incubation, 50% reduction vs time zero, read-out: Hep3B LC50

Going from `CC(C)(C)c1ccc(-c2nc(NC(=O)c3ccc([N+](=O)[O-])s3)nc3c2cnn3C(C)(C)C)cc1` [Compound 2-5, N-(1-(tert-butyl)-4-(4-(tert-butyl)phenyl)-1H-pyrazolo[3,4-d]pyrimidin-6-yl)-5-nitrothiophene-2-carboxamide] to `CC(C)(C)n1ncc2c(-c3ccc(OC(F)(F)F)cc3)nc(NC(=O)c3ccc([N+](=O)[O-])s3)nc21` [Compound 2-4, N-(1-(tert-butyl)-4-(4-(trifluoromethoxy)phenyl)-1H-pyrazolo[3,4,d]pyrimidin-6-yl)-5-nitrothiophene-2-carboxamide], the LC50 falls from 12900 nM to 3050 nM (4.2-fold).

Same assay, conditions: Homo sapiens, 48 h, Table 4, MTS, 2 days drug incubation, 50% reduction vs time zero, read-out: Hep3B LC50

Compared with `Cc1csc2c(NC(=O)c3ccc([N+](=O)[O-])s3)nc(-c3ccc(N(C)C)cc3)nc12` [Compound 4-10, N-(2-(4-(dimethylamino)phenyl)-7-methylthieno[3,2-d]pyrimidin-4-yl)-5-nitrothiophene-2-carboxamide], `Cc1csc2c(NC(=O)c3ccc([N+](=O)[O-])s3)nc(-c3cc(C(F)(F)F)ccc3F)nc12` [Compound 4-13, N-(2-(2-fluoro-5-(trifluoromethyl)phenyl)-7-methylthieno[3,2-d]pyrimidin-4-yl)-5-nitrothiophene-2-carboxamide] is lower in LC50: over 10000 nM for the first, 1700 nM for the second.

Same assay, conditions: Homo sapiens, 48 h, Table 5, MTS, 2 days drug incubation, 50% reduction vs time zero, read-out: Hep3B LC50

Compared with `CC(C)(C)c1ccc(-c2nc(NC(=O)c3ccc([N+](=O)[O-])s3)c3cnn(-c4ccccc4)c3n2)cc1` [Compound 5-37, N-(6-(4-(tert-butyl)phenyl)-1-phenyl-1H-pyrazolo[3,4-d]pyrimidin-4-yl)-5-nitrothiophene-2-carboxamide], `O=C(Nc1nc(-c2ccccc2)nc2c1cnn2-c1ccccc1)c1ccc([N+](=O)[O-])s1` [Compound 5-23, N-(1,6-diphenyl-1H-pyrazolo[3,4-d]pyrimidin-4-yl)-5-nitrothiophene-2-carboxamide] is 1.8-fold lower in LC50: 780 nM for the first, 430 nM for the second.

First: O=C(Nc1nc(C2CCNCC2)nc2c1cnn2-c1ccccc1)c1ccc([N+](=O)[O-])s1 [Compound 5-1, 5-nitro-N-(1-phenyl-6-(piperidin-4-yl)-1H-pyrazolo[3,4-d]pyrimidin-4-yl)thiophene-2-carboxamide]
Second: O=C(Nc1nc(N2CC[C@H](O)C2)nc2c1cnn2-c1ccccc1)c1ccc([N+](=O)[O-])s1 [Compound 5-4, (S)—N-(6-(3-hydroxypyrrolidin-1-yl)-1-phenyl-1H-pyrazolo[3,4-d]pyrimidin-4-yl)-5-nitrothiophene-2-carboxamide]
The LC50 of the first is higher: over 5000 nM for the first, 1010 nM for the second.

With `O=C(Nc1nc(NS(=O)(=O)c2ccc(Cl)cc2)nc2c1cnn2-c1ccccc1)c1ccc([N+](=O)[O-])s1` [Compound 5-9, N-(6-((4-chlorophenyl)sulfonamido)-1-phenyl-1H-pyrazolo[3,4-d]pyrimidin-4-yl)-5-nitrothiophene-2-carboxamide] the LC50 was over 6000 nM.

Same assay, conditions: Homo sapiens, 48 h, Table 6, MTS, 2 days drug incubation, 50% reduction vs time zero, read-out: Hep3B LC50

`O=C(Nc1nc(-c2ccc(F)cc2F)nc2c1cnn2-c1ccc(F)cc1)c1ccc([N+](=O)[O-])s1` [Compound 6-126] and `O=C(Nc1nc(-c2ccccc2F)nc2c1cnn2-c1ccc(F)cc1)c1ccc([N+](=O)[O-])s1` [Compound 6-113, N-(6-(2-fluorophenyl)-1-(4-fluorophenyl)-1H-pyrazolo[3,4-d]pyrimidin-4-yl)-5-nitrothiophene-2-carboxamide] are within 1.5-fold of each other in LC50: 350 nM for the first, 400 nM for the second.

`Cc1ccc(-n2ncc3c(NC(=O)c4ccc([N+](=O)[O-])s4)nc(N4CCC[C@H]4CO)nc32)cc1` [Compound 6-3, (S)—N-(6-(2-(hydroxymethyl)pyrrolidin-1-yl)-1-(p-tolyl)-1H-pyrazolo[3,4-d]pyrimidin-4-yl)-5-nitrothiophene-2-carboxamide] and `COC(=O)[C@@H]1CCCN1c1nc(NC(=O)c2ccc([N+](=O)[O-])s2)c2cnn(-c3ccc(F)cc3)c2n1` [Compound 6-100, methyl (1-(4-fluorophenyl)-4-(5-nitrothiophene-2-carboxamido)-1H-pyrazolo [3,4-d]pyrimidin-6-yl)-L-prolinate] are within 1.5-fold of each other in LC50: 870 nM for the first, 740 nM for the second.

First: Cc1ccc(-n2ncc3c(NC(=O)c4ccc([N+](=O)[O-])s4)nc(-c4ccc(Cl)cc4)nc32)cc1 [Compound 6-7]
Second: O=C(Nc1nc(-c2ccc(Cl)cc2)nc2c1cnn2-c1ccc(Cl)cc1)c1ccc([N+](=O)[O-])s1 [Compound 6-49, N-(1,6-bis(4-chlorophenyl)-1H-pyrazolo[3,4-d]pyrimidin-4-yl)-5-nitrothiophene-2-carboxamide]
The LC50 of the first is 1.7-fold higher: 290 nM for the first, 170 nM for the second.

Going from `CC(C)(C)c1ccc(-n2ncc3c(NC(=O)c4ccc([N+](=O)[O-])s4)nc(OCCN4CCOCC4)nc32)cc1` [Compound 6-60, N-(1-(4-(tert-butyl)phenyl)-6-(2-morpholinoethoxy)-1H-pyrazolo[3,4-d]pyrimidin-4-yl)-5-nitrothiophene-2-carboxamide] to `COc1ccc(-c2nc(NC(=O)c3ccc([N+](=O)[O-])s3)c3cnn(-c4ccc(C(C)(C)C)cc4)c3n2)cn1` [Compound 6-82, N-(1-(4-(tert-butyl)phenyl)-6-(6-methoxypyridin-3-yl)-1H-pyrazolo[3,4-d]pyrimidin-4-yl)-5-nitrothiophene-2-carboxamide], the LC50 falls from 890 nM to 380 nM (2.3-fold).

`CCOCCOc1ccc(-c2nc(NC(=O)c3ccc([N+](=O)[O-])s3)c3cnn(-c4cccc(Cl)c4)c3n2)cn1` [Compound 6-44, N-(1-(3-chlorophenyl)-6-(6-(2-ethoxyethoxy)pyridin-3-yl)-1H-pyrazolo[3,4-d]pyrimidin-4-yl)-5-nitrothiophene-2-carboxamide] and `CCOCCOCCOC[C@@H]1CCCN1c1nc(NC(=O)c2ccc([N+](=O)[O-])s2)c2cnn(-c3ccc(C(C)(C)C)cc3)c2n1` [Compound 6-72, (S)—N-(1-(4-(tert-butyl)phenyl)-6-(2-((2-(2-ethoxyethoxy)ethoxy)methyl)pyrrolidin-1-yl)-1H-pyrazolo[3,4-d]pyrimidin-4-yl)-5-nitrothiophene-2-carboxamide] are within 1.5-fold of each other in LC50: 450 nM for the first, 670 nM for the second.

Same assay, conditions: Homo sapiens, 48 h, Table 7, MTS, 2 days drug incubation, 50% reduction vs time zero, read-out: Hep3B LC50

First: O=C(Nc1nc(-c2ccc(Cl)cc2)nc2c1cnn2Cc1ccccc1)c1ccc([N+](=O)[O-])s1 [Compound 7-16, N-(1-benzyl-6-(4-chlorophenyl)-1H-pyrazolo[3,4-d]pyrimidin-4-yl)-5-nitrothiophene-2-carboxamide]
Second: O=C(Nc1nc(-c2ccc(F)nc2)nc2c1cnn2-c1ccc(F)cc1F)c1ccc([N+](=O)[O-])s1 [Compound 7-13]
The LC50 of the first is higher: over 1250 nM for the first, 130 nM for the second.

`O=C(Nc1nc(-c2ccc(C(F)(F)F)cc2)nc2c1cnn2-c1ccc(C(F)(F)F)cn1)c1ccc([N+](=O)[O-])s1` [Compound 7-4, 5-nitro-N-(6-(4-(trifluoromethyl)phenyl)-1-(5-(trifluoromethyl)pyridin-2-yl)-1H-pyrazolo[3,4-d]pyrimidin-4-yl)thiophene-2-carboxamide] was tested, and the LC50 was 220 nM.

Same assay, conditions: Homo sapiens, 48 h, Table 8, MTS, 2 days drug incubation, 50% reduction vs time zero, read-out: Hep3B LC50

Compound `CC(C)(C)OC(=O)N1CC[C@H](n2ncc3c(NC(=O)c4ccc([N+](=O)[O-])s4)nc(-c4ccc(F)nc4)nc32)C1` [Compound 8-7, tert-butyl (S)-3-(6-(6-fluoropyridin-3-yl)4-(5-nitrothiophene-2-carboxamido)-1H-pyrazolo[3,4-d]pyrimidin-1-yl)pyrrolidine-1-carboxylate] has an LC50 of 1490 nM.

Same assay, conditions: Homo sapiens, 48 h, Table 9, MTS, 2 days drug incubation, 50% reduction vs time zero, read-out: Hep3B LC50

In the case of `CC(C)(C)C(=O)N1CCC(n2ncc3c(NC(=O)c4ccc([N+](=O)[O-])s4)nc(-c4ccc(F)nc4)nc32)CC1` [Compound 9-8, N-(6-(6-fluoropyridin-3-yl)-1-(1-pivaloylpiperidin-4-yl)-1H-pyrazolo[3,4,d]pyrimidin-4-yl)-5-nitrothiophene-2-carboxamide], the LC50 was 1900 nM.

Same assay, conditions: Homo sapiens, 48 h, Table 10, MTS, 2 days drug incubation, 50% reduction vs time zero, read-out: Hep3B LC50

`O=C(Nc1nc(-c2ccc(Cl)s2)nc2c1cnn2C1CCCCC1)c1ccc([N+](=O)[O-])s1` [Compound 10-8, N-(6-(5-chlorothiophen-2-yl)-1-cyclohexyl-1H-pyrazolo[3,4-d]pyrimidin-4-yl)-5-nitrothiophene-2-carboxamide] and `O=C(Nc1nc(-c2cccc(Cl)c2)nc2c1cnn2C1CCCCC1)c1ccc([N+](=O)[O-])s1` [Compound 10-16, N-(6-(3-chlorophenyl)-1-cyclohexyl-1H-pyrazolo[3,4-d]pyrimidin-4-yl)-5-nitrothiophene-2-carboxamide] are within 1.5-fold of each other in LC50: 490 nM for the first, 610 nM for the second.

`O=C(Nc1nc(N2CCC[C@H]2CO)nc2c1cnn2C1CCCCC1)c1ccc([N+](=O)[O-])s1` [Compound 10-3, (S)—N-(1-cyclohexyl-6-(2-(hydroxymethyl)pyrrolidin-1-yl)-1H-pyrazolo[3,4-d]pyrimidin-4-yl)-5-nitrothiophene-2-carboxamide] showed an LC50 of over 5000 nM.
